# Measured values reported in US20260364101A1, “OLEUROPEIN IN THE MANAGEMENT OF CANCER” (FUNDACIÓN MIGUEL SERVET, priority 2023, published 2026).
# Entries after “also recorded” stand apart in the source; their conditions may differ.
# Assays:
# [1] = test system: MC38 cells; test: MC38 colorectal cancer mouse tumor model, with rechallenge; type: in vivo, C57BL/6 mice; details: MC38 s.c.
# Procedure: (§1) C57BL/6 female mice were subcutaneously (s.c) injected with […] LLC cells or 0.5×10^6 MC38 cells per animal. When tumor growth reached an average diameter of 3.5 mm (day 0), mice received 100 μg of anti-PD-1 mAb (RPMI-14, BioXCell) intraperitoneally (i.p) at days 0, 5, and 13. Control mice received the same volume of saline. For oleuropein, mice received 300 μg oleuropein at days-1, 2, 4, 6, and 8. As negative control, the same volume of saline was injected.
# (§2) The efficacy of all treatments was evaluated every two days by measuring two perpendicular tumor measurements. The size was calculated using the formula: Size=Length x Width. Mice were humanely sacrificed when tumor size reached ~150 mm^2, or when tumor ulceration or evident discomfort were observed. For rechallenge experiments in the MC38 model, mice that rejected tumors were injected s.c. with 5×10^5 MC38 cells in the left flank three months after the first tumor inoculation. Naïve mice were included as controls and development of tumors was evaluated for two months.
# (§3) Tumor measurements of in vivo experiments are represented as tumor diameter (mm^2) and plotted either as individual data points for one individual mouse or as mean±SD as indicated in the figure legends. Statistical analysis was performed using one way ANOVA test followed by a Sidak's multiple comparison test at 0.05 level of significance. For in vivo experiments, to compare multiple experimental groups, one-way ANOVA test and Tukey's multiple comparison test were used. Two-tailed Student's t test was applied to compare two experimental groups. Survival of tumor-bearing mice is represented by Kaplan-Meier plots and analyzed by log-rank test. The p values <0.05 were considered statistically significant.
# The efficacy of oleuropein and oleuropein/PD-1 blockade combinations were also tested in a colorectal cancer model. To this end, MC38 cells were subcutaneously implanted in mice and allowed to grow until tumors reached a diameter of about […]. Then, oleuropein was administered intraperitoneally one day prior to anti-PD1 mAb injection. […]
# [2] = test system: LLC cells; test: LLC lung cancer mouse tumor model resistant to immunotherapy; type: in vivo, C57BL/6 mice; details: for tumor growth: 300 μg oleuropein i.p. every other day for eight days
# Procedure: as §1, §2, §3
# To test antitumor capacities in vivo, LLC cells were implanted subcutaneously into groups of mice and tumors were allowed to grow to an average diameter of approximately […]. This model was chosen because LCC cells are poorly immunogenic and notoriously refractory to PD-L1/PD-1 blockade. Oleuropein was then administered intraperitoneally every other day for eight days.
# To address whether oleuropein could be combined with anti-PD1 immunotherapy to treat LCC-derived tumors, anti-PD1 mAb was systemically administered in combination with intraperitoneal injection of oleuropein. As controls, groups of mice treated with each of the agents singly and saline-treated groups were included.
# [3] = test system: CD4 T cells; test: mixed lymphocyte reaction (MLR) with TAMs as stimulator cells (FIG. 1c,d); type: cell-based, mouse; details: treated TAMs as stimulators; 5 days
# Procedure: MLR were carried out following standard procedures. Briefly, 100,000 MDSCs or TAMs from C57BL/6 mice were co-cultured in 96-well plates with 100,000 lymphocytes from BALB/c mice. Co-cultured cells were treated with 50 µM oleuropein and compared with control vehicle. After 5 days, T-lymphocyte activation, differentiation and proliferation were assessed by flow cytometry. T-cell activation and proliferation markers (Ki-67) and pro-inflammatory cytokine production (IL-2 and IFNγ) were evaluated by flow cytometry in CD4 and CD8 T cells as described before.
# Surface and intracellular staining were carried out as described before with the following fluorochrome-conjugated antibody clones: AF488 anti-CD49d (R1-2), PE anti-CD4 (GK1.5), APCanti-CD8(53-6.7), brilliant Violet 510™ anti-I-A/I-E (M5/114.15.2,PE/Cyanine7anti-Ly-6G (1A8), and APC anti-CD80 (16-10A1) (Biolegend), FITC anti-IL-12 (C15.6) and BV421 anti-IL-2 (JES6-5H4) (BD Bioscience), APC-Vio® 770 anti-Ly-6C (REA796), PE REAfinity™ anti-F4/80 (REA126), and APC anti-CD68 (REA886) (Miltenyi), PerCP-Cyanine5.5 Anti-Human/Mouse CD11b (M1/70) (Tonbo), and AF488 anti-IFNγ (Clone XMG1.2) (BD Pharmigen). […]
# [4] = test system: myeloid cells from NSCLC patients; test: myeloid cells from NSCLC patients treated ex vivo, flow cytometry (FIG. 6a); type: cell-based, human
# Procedure: Surface and intracellular staining were carried out as described before with the following fluorochrome-conjugated antibody clones: AF488 anti-CD49d (R1-2), PE anti-CD4 (GK1.5), APCanti-CD8(53-6.7), brilliant Violet 510™ anti-I-A/I-E (M5/114.15.2,PE/Cyanine7anti-Ly-6G (1A8), and APC anti-CD80 (16-10A1) (Biolegend), FITC anti-IL-12 (C15.6) and BV421 anti-IL-2 (JES6-5H4) (BD Bioscience), APC-Vio® 770 anti-Ly-6C (REA796), PE REAfinity™ anti-F4/80 (REA126), and APC anti-CD68 (REA886) (Miltenyi), PerCP-Cyanine5.5 Anti-Human/Mouse CD11b (M1/70) (Tonbo), and AF488 anti-IFNγ (Clone XMG1.2) (BD Pharmigen). For human cells, it was used the following fluorochrome-conjugated antibodies: PerCP-Cy5.5-anti-CD11b (integrina alfa M) (M1/70), Violet Fluor 450 anti-CD14 antibody (61D3) (Tonbo), PE anti-CD115 (CSF-1R) (9-4D2-1E4) (Biolegend), PE-Cy™7 anti-CD11c (Clone B-ly6) (BD Bioscience), and APC anti-HLA-DR (REA517) (Miltenyi).
# Data were collected using the FACSCanto Flow Cytometer (BD Biosciences) for ex vivo and in vitro experiments at Navarrabiomed Biomedical Research Center and Cyroflex LX flow cytometer (Beckman Counter). Data were analyzed with Flowjo.
# Twenty-one patients diagnosed with locally advanced or metastatic NSCLC treated with the immune checkpoint inhibitors (ICI) pembrolizumab (anti-PD-1) were recruited for the study. The characteristics of the cohort under study have been described before, and this observational study was approved by the Ethics Committee of Clinical Investigations at the University Hospital of Navarre (reference number: PI_2020/115). 11 of the patients were chemoresistant. Blood samples from non-small cell lung cancer (NSCLC) patients were collected prior to treatment and before administration of each immunotherapy cycle.
# PBMCs were isolated as described and grown in vitro for 24 h in TEXCMACs medium (Miltenyi Biotec). Myeloid cells were obtained by adherence to plastic for 24 h. Then, 50,000 myeloid cells were seeded per well with 50 µM oleuropein in 96-well plates and incubated for seven days.
# [5] = LLC s.c., oleuropein 300 μg i.p. alone or with anti-PD-1 mAb 100 μg i.p.
# [6] = oleuropein 50 μM, seven days, N=21 patients
smiles,measurement,setting,value
C/C=C1/[C@H](O[C@@H]2O[C@H](CO)[C@@H](O)[C@H](O)[C@H]2O)OC=C(C(=O)OC)[C@H]1CC(=O)OCCc1ccc(O)c(O)c1 [oleuropein],cure rate,[1]; oleuropein 300 μg i.p.,16%
same,survival,[1]; oleuropein 300 μg i.p. and/or anti-PD-1 mAb 100 μg i.p.,significant increase in survival
same,tumor growth,[1]; oleuropein 300 μg i.p. or anti-PD-1 mAb 100 μg i.p.,significantly delayed the growth of MC38 tumors
same,tumor growth,[2]; LLC s.c.,significantly delayed tumor growth
same,tumor growth,"[2]; LLC s.c., listed as Oleuropein",delayed tumor growth
same,"increased survival, time",[2]; [5],up to 20 days
same,survival,[2]; [5],significant increase in long-term survival
same,survival,"[2]; LLC s.c., oleuropein 300 μg i.p. alone or with anti-PD-1 mAb 100 μg i.p., listed as Oleuropein",significantly increased survival
same,mice responding to the treatment,"[2]; LLC s.c., oleuropein i.p.",most of the mice responding to the treatment
same,improvement of aPD-1 therapies,[2]; tumor model intrinsically resistant to PD-1 blockade,improved aPD-1 therapies in a tumor model intrinsically resistant to PD-1 blockade; also recorded: improved aPD-1 and anti-LAG-3 therapies
same,CD4 T cell stimulation assessed by IFNγ and IL-2 production,[3],potently stimulated
same,activation of myeloid cells of subjects suffering lung cancer,[4]; including anti-PD-1-based therapy resistance,induced the activation of myeloid cells
same,CD11b+ cells,[4]; [6],increase
same,expression of CD11c+HLA-DR,[4]; [6],elevation
same,expression of CD14+HLA-DR,[4]; [6],elevation
same,expression of CD115+HLA-DR,[4]; [6],elevation
